Experimental data as given in article PMC7893776, “Selecting an anti-malarial clinical candidate from two potent dihydroisoquinolones” (Malaria Journal, 2021).

What was measured:
Format in all cases: in vitro ADME
[1] = Microsomal stability, dog; conditions: dog microsomes; for CLint in vitro: independent replicate to Table 4; for CLint in vivo: scaled up using PBSF
Procedure: (§1) The metabolic stability assay was performed by incubating compounds individually (0.8, 4, or 20 µM) with mouse, rat, dog and human liver microsomes (Fisher, 0.5 mg/mL protein concentration) at 37 °C. The metabolic reaction was initiated by the addition of a NADPH-regenerating system and quenched at various time points by the addition of acetonitrile according to a published method.
(§2) The remaining concentration of each compound was measured as a ratio of peak area to the internal standard. The log peak area ratio was plotted vs. time (h), and the slope was determined to calculate the elimination rate constant [k = (− 2.303) * slope]. If deviation from first order kinetics was evident, only the initial linear portion of the plot was used to determine the rate constate, k. The half-life (h) was calculated as t1/2 = 0.693/k. Intrinsic clearance in vitro was calculated as CLintin vitro = (1000)*(0.693/t1/2*60)/0.5, where microsomal concentration in the reaction solution was 0.5 mg/mL; 1000 and 60 are scaling factors for volume (µL) and time (min), respectively. The intrinsic in vitro clearance was scaled to the intrinsic in vivo clearance using physiology based scaling factor (PBSF): CLint in vivo= CLint in vitro *PBSF: (microsome protein/gram liver) * (gram liver/kg b.w.), with PBSF: 47 (mouse), 47(rat), 58 (dog), 32 (human); and liver weight proportions: 54.9 (mouse), 36.6 (rat), 32.9 (dog) 25.7 (human).

[2] = Microsomal stability, mouse; conditions: mouse microsomes; for CLint in vitro: independent replicate to Table 4; for CLint in vivo: scaled up using PBSF
Procedure: as §1, §2

[3] = Microsomal stability, human; conditions: human microsomes; for CLint in vitro: independent replicate to Table 4; for CLint in vivo: scaled up using PBSF
Procedure: as §1, §2

[4] = Microsomal stability, rat; conditions: rat microsomes; for CLint in vitro: independent replicate to Table 4; for CLint in vivo: scaled up using PBSF
Procedure: as §1, §2

For `N#Cc1cc(NC(=O)[C@@H]2c3ccccc3C(=O)N(CC(F)(F)F)[C@H]2c2cn[nH]c2)ccc1F` [(−)-SJ311], which CLint ([1]; 0.8 µM) is on record?
Its CLint is < 7 µl/min/mg protein.

And the t1/2 ([1]; 0.8 µM)?
Its t1/2 is > 4 h.

And the CLint ([2]; 0.8 µM)?
Its CLint is < 7 µl/min/mg protein.

What about the t1/2 ([2]; 0.8 µM) of the same molecule?
Its t1/2 is > 4 h.

What about the CLint ([3]; 0.8 µM) of the same molecule?
Its CLint is < 7 µl/min/mg protein.

And the t1/2 ([3]; 0.8 µM)?
Its t1/2 is > 4 h.

What about the CLint ([4]; 0.8 µM) of the same molecule?
Its CLint is < 7 µl/min/mg protein.

What about the t1/2 ([4]; 0.8 µM) of the same molecule?
The t1/2 was > 4 h.

Which CLint ([1]; 0.8 µM) does the source give for `N#Cc1cc(NC(=O)[C@@H]2c3ccccc3C(=O)N(CC(F)(F)F)[C@H]2c2cccnc2)ccc1F` [(-)-SJ733] here?
Its CLint is 10.9 ± 1.5 µl/min/mg protein.

And the t1/2 ([1]; 0.8 µM)?
The t1/2 was 2.2 ± 0.4 h.

What about the CLint in vitro ([1]; 0.8 µM) of the same molecule?
The CLint in vitro was 9.8 ± 0.4 µl/min/mg protein.

What about the CLint in vivo ([1]; 0.8 µM) of the same molecule?
Its CLint in vivo is 14.1 ± 0.5 mL/min/kg.

And the CLint in vitro ([1]; 4 µM)?
Its CLint in vitro is 9.5 ± 0.3 µl/min/mg protein.

And the CLint in vivo ([1]; 4 µM)?
Its CLint in vivo is 13.7 ± 0.5 mL/min/kg.

And the CLint in vitro ([1]; 20 µM)?
Its CLint in vitro is 6.0 ± 0.4 µl/min/mg protein.

And the CLint in vivo ([1]; 20 µM)?
The CLint in vivo was 8.6 ± 0.6 mL/min/kg.

What about the CLint ([2]; 0.8 µM) of the same molecule?
Its CLint is 32.1 ± 2.1 µl/min/mg protein.

And the t1/2 ([2]; 0.8 µM)?
The t1/2 was 0.8 ± 0.1 h.

What about the CLint in vitro ([2]; 0.8 µM) of the same molecule?
The CLint in vitro was 30.6 ± 1.4 µl/min/mg protein.

What about the CLint in vivo ([2]; 0.8 µM) of the same molecule?
Its CLint in vivo is 71.7 ± 3.4 mL/min/kg.

What about the CLint in vitro ([2]; 4 µM) of the same molecule?
Its CLint in vitro is 26.9 ± 0.6 µl/min/mg protein.

What about the CLint in vivo ([2]; 4 µM) of the same molecule?
Its CLint in vivo is 63.0 ± 2.1 mL/min/kg.

And the CLint in vitro ([2]; 20 µM)?
Its CLint in vitro is 10.5 ± 0.4 µl/min/mg protein.

And the CLint ([3]; 0.8 µM)?
Its CLint is 61.7 ± 13.2 µl/min/mg protein.

What about the t1/2 ([3]; 0.8 µM) of the same molecule?
Its t1/2 is 0.4 ± 0.1 h.

And the CLint in vitro ([3]; 0.8 µM)?
The CLint in vitro was 52.4 ± 1.1 µl/min/mg protein.

And the CLint in vivo ([3]; 0.8 µM)?
The CLint in vivo was 47.2 ± 1.0 mL/min/kg.

And the CLint in vitro ([3]; 4 µM)?
Its CLint in vitro is 40.4 ± 0.9 µl/min/mg protein.

And the CLint in vivo ([3]; 4 µM)?
Its CLint in vivo is 36.4 ± 0.8 mL/min/kg.

And the CLint in vitro ([3]; 20 µM)?
The CLint in vitro was 25.3 ± 0.4 µl/min/mg protein.

What about the CLint in vivo ([3]; 20 µM) of the same molecule?
The CLint in vivo was 22.7 ± 0.3 mL/min/kg.

What about the CLint ([4]; 0.8 µM) of the same molecule?
Its CLint is < 7 µl/min/mg protein.

What about the t1/2 ([4]; 0.8 µM) of the same molecule?
The t1/2 was > 4 h.

And the CLint in vitro ([4]; 0.8 µM)?
Its CLint in vitro is <7 µl/min/mg protein.

What about the CLint in vivo ([4]; 0.8 µM) of the same molecule?
The CLint in vivo was <11.7 mL/min/kg.

And the CLint in vitro ([4]; 4 µM)?
Its CLint in vitro is <7 µl/min/mg protein.

And the CLint in vivo ([4]; 4 µM)?
The CLint in vivo was <11.7 mL/min/kg.

What about the CLint in vitro ([4]; 20 µM) of the same molecule?
Its CLint in vitro is <7 µl/min/mg protein.

What about the CLint in vivo ([4]; 20 µM) of the same molecule?
The CLint in vivo was <11.7 mL/min/kg.
